Experimental data as given in the NIST ThermoML archive (doi:10.1016/j.jct.2018.12.008).
Numbers after ± are expanded uncertainties.

Tests used:
[1] = mn = molality of the nth substance listed, in mol/kg; conditions: 100 kPa, Liquid; for viscosity: Falling or rolling sphere viscometry; for electrical conductivity: Frequency=0.003 MHz, Alternating current cell with electrodes; for mass density: Vibrating tube method
[2] = 100 kPa, Liquid, Falling or rolling sphere viscometry

CCCC[n+]1ccc(C)cc1.[Br-] [1-butyl-4-methylpyridinium bromide] + O
[1]
Conditions | electrical conductivity, 288.15 K [S/m] | electrical conductivity, 298.15 K [S/m] | electrical conductivity, 308.15 K [S/m] | mass density, 288.15 K [kg/m3] | mass density, 298.15 K [kg/m3] | mass density, 308.15 K [kg/m3] | viscosity, 288.15 K [mPa·s] | viscosity, 298.15 K [mPa·s] | viscosity, 308.15 K [mPa·s]
m1 = 0.0011 | – | – | – | 999.126 ± 0.6 | 997.066 ± 0.6 | 994.057 ± 0.6 | 1.135 ± 0.022 | 0.8895 ± 0.021 | 0.7239 ± 0.021
m1 = 0.0018 | – | – | – | 999.138 ± 0.6 | 997.081 ± 0.6 | 994.066 ± 0.6 | 1.137 ± 0.022 | 0.8911 ± 0.021 | 0.7267 ± 0.021
m1 = 0.0021 | 0.0186 ± 0.0017 | 0.023 ± 0.0021 | 0.0278 ± 0.0025 | 999.139 ± 0.6 | 997.093 ± 0.64 | 994.069 ± 0.6 | 1.137 ± 0.022 | 0.891 ± 0.028 | 0.727 ± 0.021
m1 = 0.0036 | – | – | – | 999.163 ± 0.6 | 997.131 ± 0.6 | 994.087 ± 0.6 | 1.14 ± 0.022 | 0.894 ± 0.021 | 0.7317 ± 0.021
m1 = 0.0043 | 0.0358 ± 0.0016 | 0.0444 ± 0.0021 | 0.054 ± 0.0025 | 999.177 ± 0.6 | 997.148 ± 0.6 | 994.099 ± 0.6 | 1.141 ± 0.022 | 0.895 ± 0.021 | 0.734 ± 0.021
m1 = 0.0065 | 0.0536 ± 0.0017 | 0.0671 ± 0.0022 | 0.0809 ± 0.0026 | 999.217 ± 0.6 | 997.205 ± 0.6 | 994.13 ± 0.6 | 1.146 ± 0.022 | 0.9 ± 0.021 | 0.742 ± 0.021

CCCCCC[n+]1ccc(C)cc1.[Br-] [1-hexyl-4-methylpyridinium bromide] + O
[1]
Conditions | electrical conductivity, 288.15 K [S/m] | electrical conductivity, 298.15 K [S/m] | electrical conductivity, 308.15 K [S/m] | mass density, 288.15 K [kg/m3] | mass density, 298.15 K [kg/m3] | mass density, 308.15 K [kg/m3] | viscosity, 288.15 K [mPa·s] | viscosity, 298.15 K [mPa·s] | viscosity, 308.15 K [mPa·s]
m1 = 0.0011 | – | – | – | 999.106 ± 0.6 | 997.049 ± 0.6 | 994.045 ± 0.6 | 1.134 ± 0.022 | 0.8886 ± 0.021 | 0.721 ± 0.021
m1 = 0.0018 | – | – | – | 999.113 ± 0.6 | 997.053 ± 0.6 | 994.051 ± 0.6 | 1.135 ± 0.022 | 0.8893 ± 0.021 | 0.7216 ± 0.021
m1 = 0.0021 | 0.0177 ± 0.0016 | 0.022 ± 0.002 | 0.0266 ± 0.0024 | 999.119 ± 0.6 | 997.057 ± 0.64 | 994.054 ± 0.6 | 1.135 ± 0.022 | 0.889 ± 0.027 | 0.722 ± 0.021
m1 = 0.0036 | – | – | – | 999.129 ± 0.6 | 997.069 ± 0.6 | 994.067 ± 0.6 | 1.136 ± 0.022 | 0.8907 ± 0.021 | 0.7231 ± 0.021
m1 = 0.0043 | 0.0345 ± 0.0016 | 0.0431 ± 0.0019 | 0.0522 ± 0.0024 | 999.138 ± 0.6 | 997.073 ± 0.6 | 994.072 ± 0.6 | 1.136 ± 0.022 | 0.891 ± 0.021 | 0.724 ± 0.021
m1 = 0.0065 | 0.0512 ± 0.0016 | 0.0635 ± 0.002 | 0.077 ± 0.0024 | 999.156 ± 0.6 | 997.088 ± 0.6 | 994.09 ± 0.6 | 1.138 ± 0.022 | 0.893 ± 0.021 | 0.725 ± 0.021

CCCCCCCC[n+]1ccc(C)cc1.[Br-] [1-octyl-4-methylpyridinium bromide] + O
[1]
Conditions | electrical conductivity, 288.15 K [S/m] | electrical conductivity, 298.15 K [S/m] | electrical conductivity, 308.15 K [S/m] | mass density, 288.15 K [kg/m3] | mass density, 298.15 K [kg/m3] | mass density, 308.15 K [kg/m3] | viscosity, 288.15 K [mPa·s] | viscosity, 298.15 K [mPa·s] | viscosity, 308.15 K [mPa·s]
m1 = 0.0011 | – | – | – | 999.141 ± 0.6 | 997.088 ± 0.6 | 994.07 ± 0.6 | 1.134 ± 0.022 | 0.8878 ± 0.021 | 0.7215 ± 0.021
m1 = 0.0018 | – | – | – | 999.186 ± 0.6 | 997.125 ± 0.6 | 994.101 ± 0.6 | 1.135 ± 0.022 | 0.8882 ± 0.021 | 0.7225 ± 0.021
m1 = 0.0021 | 0.0176 ± 0.0016 | 0.0219 ± 0.002 | 0.0265 ± 0.0024 | 999.196 ± 0.6 | 997.135 ± 0.64 | 994.115 ± 0.6 | 1.136 ± 0.022 | 0.891 ± 0.029 | 0.727 ± 0.021
m1 = 0.0036 | – | – | – | 999.266 ± 0.6 | 997.199 ± 0.6 | 994.174 ± 0.6 | 1.136 ± 0.022 | 0.8892 ± 0.021 | 0.7255 ± 0.021
m1 = 0.0043 | 0.0344 ± 0.0015 | 0.042 ± 0.0019 | 0.0517 ± 0.0023 | 999.3 ± 0.6 | 997.233 ± 0.6 | 994.42 ± 0.6 | 1.138 ± 0.022 | 0.892 ± 0.021 | 0.731 ± 0.021
m1 = 0.0065 | 0.051 ± 0.0016 | 0.0634 ± 0.0021 | 0.076 ± 0.0023 | 999.402 ± 0.6 | 997.329 ± 0.6 | 994.283 ± 0.6 | 1.139 ± 0.022 | 0.893 ± 0.021 | 0.734 ± 0.021

O [water]
[2]
Conditions | viscosity [mPa·s]
288.15 K | 1.133 ± 0.022
298.15 K | 0.89 ± 0.021
308.15 K | 0.719 ± 0.021

O [water] + CCCCCCCC[n+]1ccc(C)cc1.[Br-]
[1], m2 = 0
Conditions | electrical conductivity [S/m] | viscosity [mPa·s]
288.15 K | 0.000101 | 1.133 ± 0.022
298.15 K | 0.00015 | 0.89 ± 0.022
308.15 K | 0.000216 | 0.719 ± 0.021

O [water] + CCCCCC[n+]1ccc(C)cc1.[Br-]
[1], m2 = 0
Conditions | electrical conductivity [S/m] | viscosity [mPa·s]
288.15 K | 0.000101 | 1.133 ± 0.022
298.15 K | 0.00015 | 0.89 ± 0.022
308.15 K | 0.000216 | 0.719 ± 0.021

O [water] + CCCC[n+]1ccc(C)cc1.[Br-]
[1], m2 = 0
Conditions | electrical conductivity [S/m] | viscosity [mPa·s]
288.15 K | 0.000101 | 1.133 ± 0.022
298.15 K | 0.00015 | 0.89 ± 0.021
308.15 K | 0.000216 | 0.719 ± 0.021
